Assay results: US20030077628A1, “Method of screening compounds for biological activity” (priority 2002, published 2003)

Biological target: receptor B-subunit derived from the Escherichia coli O157 toxin (Bacteriophage H30, UniProt P69178)
Format: binding
Details: pH 7

receptor B-subunit derived from the Escherichia coli O157 toxin, sequence (P69178 21-89 limits assumed): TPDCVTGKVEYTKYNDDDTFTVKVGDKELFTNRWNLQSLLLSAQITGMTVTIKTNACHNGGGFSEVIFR

SMILES | change of ligand resonances (one-bond 13C-1H splittings) in the presence of the receptor
OC[C@H]1O[C@@H](O[C@H]2[C@H](O)[C@@H](O)C(O)O[C@@H]2CO)[C@H](O)[C@@H](O)[C@H]1O (some centres unmarked) [Galβ1-4Glc, lactose] | unchanged
OC[C@H]1O[C@H](O[C@@H]2[C@H](O)[C@@H](O)[C@H](O[C@H]3[C@H](O)[C@@H](O)C(O)O[C@@H]3CO)O[C@@H]2CO)[C@H](O)[C@@H](O)[C@H]1O (some centres unmarked) [Galα1-4Galβ1-4Glc] | shifted
